The values below come from ChEMBL document CHEMBL4190285, “Borapetoside E, a Clerodane Diterpenoid Extracted from Tinospora crispa, Improves Hyperglycemia and Hyperlipidemia in High-Fat-Diet-Induced Type 2 Diabetes Mice” (J Nat Prod, 2017).

The subject of data set [1] is Mus musculus. Briefly: Antihyperlipidemic activity in high fat diet-induced obese C57BL/6J mouse assessed as serum HDL-C levels at 20 mg/kg, ip administered twice daily for 2.5 days measured at 2 hrs post last dose (reference value: 1.82 +/- 0.58 mmol/L). The format is functional.
Data set [2] concerns Mus musculus. Description: Antihyperlipidemic activity in high fat diet-induced obese C57BL/6J mouse assessed as serum LDL-C levels at 40 mg/kg, ip administered twice daily for 2.5 days measured at 2 hrs post last dose (reference value: 2.54 +/- 0.87 mmol/L). The format is functional.
Data set [3] concerns Mus musculus. Description: Down regulation of SREBP1 mRNA expression in HFD-induced obese C57BL/6J mouse adipose tissue at 20 to 40 mg/kg, ip administered twice daily for 2.5 days measured at 2 hrs post last dose by RT-PCR analysis. The format is functional, organism-based.
Data set [4] deals with Mus musculus. Briefly: Down regulation of ACL1 mRNA expression in HFD-induced obese C57BL/6J mouse liver at 20 to 40 mg/kg, ip administered twice daily for 2.5 days measured at 2 hrs post last dose by RT-PCR analysis. Format: functional, organism-based.
The test system of data set [5] is Mus musculus. Briefly: Toxicity in HFFD-induced obese C57BL/6J mouse assessed as serum creatinine kinase level at 40 mg/kg, ip administered twice daily for 2.5 days followed by once daily dosing up to 16 days measured at 2 hrs post last dose (reference value: 551.93 +/- 126.48 U/L). The format is organism-based. The note with it: in vivo.

The source made the active and inactive calls. The rule behind the calls is not given here.

Turning to `COC(=O)C1=CCC[C@H]2[C@](C)(C[C@@H](O[C@@H]3O[C@H](CO)[C@@H](O)[C@H](O)[C@H]3O)c3ccoc3)[C@H]3C[C@H](OC3=O)[C@@]12C`, the Activity in the data set on Mus musculus [1] is 1.2 mmol/L; with Mus musculus [2] it was 1.65 mmol/L; in the data set on Mus musculus [5], 520.4 U/L. Moreover, the outcome with Mus musculus [3] and in the data set on Mus musculus [4] was Active.
